The values that follow come from US4992417A (Mount Sinai School of Medicine, priority 1988, dated 1991).

For test [1], the system named is Guinea pig antiserum to porcine insulin. As to the kind of experiment: Insulin radioimmunoassay. The note with it: competition with 125I-insulin for anti-insulin antiserum; ratio of slopes. In kind it is binding.
Experimental: After incubation at room temperature overnight, 0.2 ml of the precipitating antibody (goat anti-guinea pig-γ globulin) was added, and the tubes were further incubated overnight at room temperature. Immune precipitates were collected on cellulose-acetate filters and washed with two successive 1.0 mL portions of ice-cold assay buffer. Filters were dried and radioactivity was counted in a scintillation counter in Filtron-X®.
In another test the test system is rat adipocytes. As to the kind of experiment: Lipogenesis assay (conversion of [3-3H] glucose into lipids). The note with it: isolated rat adipocytes. In kind it is cell-based.
The target of test [2] is T1, insulin receptors in rat liver plasma membranes (Rattus norvegicus, UniProt P15127).
T1 construct: Rat liver plasma membranes were prepared as described by Horvat et al; from tissue; host or cells: rat liver plasma membranes
As to the kind of experiment: Insulin receptor binding assay (competition with 125I-insulin).
Experimental: Following incubation for 45 min at 24° C., the mixtures were diluted with 2.0 ml of ice cold 0.1M sodium phosphate, pH 7.4, containing 0.1% fraction V bovine serum albumin and immediately filtered through cellulose-acetate filters. The filters were washed twice with the ice cold buffer, dried, and then radioactivity was counted in a scintillation counter using Filtron-X®.
Inhibition of binding, expressed as per cent of maximum, was plotted as a function of competitor concentration. […] The maximum binding in these assays amounted to 8.2% of the input radioactivity.
Inhibition of binding, expressed as per cent of maximum, was plotted as a function of competitor concentration.

A further test deals with insulin receptor (Homo sapiens, UniProt P06213). The note with it: cited from earlier work; for potency compared with natural insulin: literature.

T1 sequence (P15127 27-759 limits assumed): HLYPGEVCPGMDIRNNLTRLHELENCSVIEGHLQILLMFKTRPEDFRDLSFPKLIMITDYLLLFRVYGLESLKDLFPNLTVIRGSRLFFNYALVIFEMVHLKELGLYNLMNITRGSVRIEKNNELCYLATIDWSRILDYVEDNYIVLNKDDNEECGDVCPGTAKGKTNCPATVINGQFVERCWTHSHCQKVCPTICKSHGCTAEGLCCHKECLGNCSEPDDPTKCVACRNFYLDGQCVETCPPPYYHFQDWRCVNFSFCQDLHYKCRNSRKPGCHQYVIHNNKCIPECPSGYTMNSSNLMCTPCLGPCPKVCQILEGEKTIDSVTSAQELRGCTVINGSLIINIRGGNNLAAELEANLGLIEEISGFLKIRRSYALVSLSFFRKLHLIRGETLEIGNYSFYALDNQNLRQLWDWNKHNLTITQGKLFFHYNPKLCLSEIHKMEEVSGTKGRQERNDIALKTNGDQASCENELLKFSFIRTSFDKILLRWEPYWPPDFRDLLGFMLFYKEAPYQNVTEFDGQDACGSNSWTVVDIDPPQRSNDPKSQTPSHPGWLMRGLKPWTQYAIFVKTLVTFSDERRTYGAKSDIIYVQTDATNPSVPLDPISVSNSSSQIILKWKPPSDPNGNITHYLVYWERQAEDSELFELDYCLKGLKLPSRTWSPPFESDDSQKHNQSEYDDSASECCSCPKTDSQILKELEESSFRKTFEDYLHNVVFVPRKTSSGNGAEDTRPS
Experimental for rat adipocytes: Adipocytes were prepared by incubating epididymal and perirenal fat pads obtained from male rats weighing 200-300 g with 1.0 mg/ml collagenase for 60 min at 37° C., followed by filtration through gauze and then through fine-mesh silk. Cells were washed twice by flotation in a clinical centrifuge before suspension for use. The incubation medium was Krebs-Ringer bicarbonate containing half the recommended calcium, 0.5 mM glucose, and 3% fatty acid free bovine serum albumin, with 95% O2 -5% CO2 as the gas phase. […] Cells were preincubated for 45 min at 37° C. before the addition of [3-^3 H] glucose. Incubation was continued for 60 min and stopped by the addition of 0.2 ml of 5N H2 SO4 and 0.2 ml of corn oil to aid in the extraction of lipids. Samples were extracted with 10 ml of Soluscint-0® for 30 min at room temperature before counting the radioactivity in a scintillation counter. Under these conditions, [3-^3 H] glucose was not extracted into the organic phase containing the scintillation fluors and was essentially uncounted.
Stimulation, expressed as per cent of maximum, was plotted as a function of the agonist concentration. The data points represent the mean of triplicate determinations in representative assays performed four times. […]
Stimulation, expressed as per cent of maximum, was plotted as a function of the agonist concentration. […]

In the case of [10-Aspartic acid-B] human insulin, the “potency in radioimmunoassay relative to bovine insulin” value in test [1] was “approximately equal potency”. Also, in the test with rat adipocytes, the “maximum stimulation of lipogenesis compared with bovine insulin” value is “full agonist”. Besides, the “relative potency (concentration ratio required to produce 50% of the maximum stimulation of lipogenesis) relative to bovine insulin” value with rat adipocytes ([3-3H] glucose, 60 min, assays performed four times) is listed as 435±144%. In test [2] (rat liver plasma membranes, 45 min at 24° C., pH 7.4, assay performed four times), the “potency relative to bovine insulin (concentration ratio required to inhibit 50% of the specific binding of 125I-insulin)” value is “about 534±146%”. Moreover, the “binding to the insulin receptor, times more tightly than natural insulins” value in test [2] (relative to natural insulins) is given as “about five times more tightly”.
For the substance [Asn^B10 ]- insulin, the “potency compared with natural insulin” value in the test with insulin receptor is given as “reduced potency”.
As to [Leu^B10 ]- insulin, the “potency compared with natural insulin” value in the test with insulin receptor is “reduced potency”.
Turning to [Lys^B10 ] insulin, the “potency compared with natural insulin” value with insulin receptor is reported as “reduced potency”.
For “des-pentapeptide(B26-B30)-[Phe^B25 -α-carboxamide]insulin”, the “potency compared with natural insulin” value at insulin receptor is recorded as “comparable potency”.
For the substance “des-pentapeptide(B26-B30)-[Tyr^B25 -α-carboxamide]insulin”, the “potency greater than insulin” value at insulin receptor (literature (Nakagawa et al.; Casareto et al.)) is reported as 270-300%.
